Reference: PMC10999558, “Analyzing resistome in soil and Human gut: a study on the characterization and risk evaluation of antimicrobial peptide resistance” (Frontiers in Microbiology, 2024)

What was measured:
Type in all cases: cell-based, Escherichia coli
Conditions in all cases: MHB, 37°C, 24 h, triplicate
E. coli DH5α = assay: MIC, broth microdilution, E. coli DH5α carrying pUC118 or resistance-conferring plasmids
Procedure: (§1) Escherichia coli DH5α, E. coli BL21(DE3), and E. coli JM109 were utilized in this study.
(§2) The MICs were determined using the broth microdilution method in 96-well microtiter plates ([Wiegand et al., 2008]). In brief, a 1:100 dilution of the mid-exponential phase bacterial culture (OD600 = 0.5), consisting of 5 μL (1 × 10^5 CFU/mL), was introduced into polypropylene 96-well plates. These plates contained a two-fold dilution series of AMP in a total volume of 100 μL MHB per well. The incubation of the plates occurred at 37°C in a humidity chamber. The MIC was identified as the lowest concentration that hindered visible bacterial growth after 24 h of incubation. Each experiment was conducted in triplicate.
(§3) Following validation, the colonies displaying resistance underwent additional testing via MIC assessments for the remaining four AMPs that were not employed during the selection process. This experimental procedure was carried out in triplicate.

E. coli JM109 = assay: MIC, broth microdilution, retransformed E. coli JM109
Procedure: as §1, §2
(§4) Before washing down the colonies, we randomly selected two clones from each plate containing distinct AMP. Colony PCRs were conducted using M13 primer pairs to validate the presence of inserts and determine their sizes. The selected colonies were then subjected to sequencing. The specific details are provided in Supplementary Table S2. Following that, plasmids were isolated using the Plasmid Midiprep Kit (Zomanbio, ZP103) following the manufacturer’s guidelines. After the plasmids were successfully reintroduced into E. coli JM109 and E. coli BL 21(DE3), the MICs of the transformed strains against the AMP used for selection were tested. This testing process was carried out in triplicate.
as §3

E. coli BL21(DE3) = assay: MIC, broth microdilution, retransformed E. coli BL21(DE3)
Procedure: as §1, §2, §4, §3

Measured: MIC

Colistin [CST]
0.5 µg/mL: E. coli DH5α; colony pUC118-FCST1-DH5α (feces insert 1 selected against colistin) | E. coli DH5α; colony pUC118-FCST2-DH5α (feces insert 2 selected against colistin) | E. coli DH5α; colony pUC118-FGQ1-DH5α (feces insert 1 selected against melittin) | E. coli DH5α; colony pUC118-FGQ2-DH5α (feces insert 2 selected against melittin) | E. coli DH5α; colony pUC118-FSA1-DH5α (feces insert 1 selected against cathelicidin-DM) | E. coli DH5α; colony pUC118-FSA2-DH5α (feces insert 2 selected against cathelicidin-DM) | E. coli DH5α; colony pUC118-SCST1-DH5α (soil insert 1 selected against colistin) | E. coli DH5α; colony pUC118-SPB2-DH5α (soil insert 2 selected against polymyxin B) | E. coli DH5α; colony pUC118-SSA1-DH5α (soil insert 1 selected against cathelicidin-DM) | E. coli JM109; colony pUC118-FCST1-JM109 (feces insert 1 selected against colistin) | E. coli JM109; colony pUC118-FGQ1-JM109 (feces insert 1 selected against melittin) | E. coli JM109; colony pUC118-FGQ2-JM109 (feces insert 2 selected against melittin) | E. coli JM109; colony pUC118-FIB2-JM109 (feces insert 2 selected against iseganan) | E. coli JM109; colony pUC118-FPB2-JM109 (feces insert 2 selected against polymyxin B) | E. coli JM109; colony pUC118-FSA2-JM109 (feces insert 2 selected against cathelicidin-DM) | E. coli JM109; colony pUC118-SCST1-JM109 (soil insert 1 selected against colistin) | E. coli JM109; colony pUC118-SCST2-JM109 (soil insert 2 selected against colistin) | E. coli JM109; colony pUC118-SPB2-JM109 (soil insert 2 selected against polymyxin B) | E. coli JM109; colony pUC118-SSA1-JM109 (soil insert 1 selected against cathelicidin-DM)
0.25 µg/mL: E. coli DH5α; E. coli DH5α containing pUC118 plasmids | E. coli DH5α; colony pUC118-DH5α (control, no insert) | E. coli DH5α; colony pUC118-FIB1-DH5α (feces insert 1 selected against iseganan) | E. coli DH5α; colony pUC118-SGQ1-DH5α (soil insert 1 selected against melittin) | E. coli DH5α; colony pUC118-SGQ2-DH5α (soil insert 2 selected against melittin) | E. coli DH5α; colony pUC118-SIB1-DH5α (soil insert 1 selected against iseganan) | E. coli DH5α; colony pUC118-SIB2-DH5α (soil insert 2 selected against iseganan) | E. coli DH5α; colony pUC118-SPB1-DH5α (soil insert 1 selected against polymyxin B) | E. coli JM109; colony pUC118-FIB1-JM109 (feces insert 1 selected against iseganan) | E. coli JM109; colony pUC118-JM109 (control, no insert) | E. coli JM109; colony pUC118-SGQ1-JM109 (soil insert 1 selected against melittin) | E. coli JM109; colony pUC118-SGQ2-JM109 (soil insert 2 selected against melittin) | E. coli JM109; colony pUC118-SIB1-JM109 (soil insert 1 selected against iseganan) | E. coli JM109; colony pUC118-SIB2-JM109 (soil insert 2 selected against iseganan) | E. coli JM109; colony pUC118-SPB1-JM109 (soil insert 1 selected against polymyxin B) | E. coli JM109; colony pUC118-SSA2-JM109 (soil insert 2 selected against cathelicidin-DM)
4 µg/mL: E. coli BL21(DE3); colony pUC118-FPB1-BL21(DE3) (feces insert 1 selected against polymyxin B)
2 µg/mL: E. coli DH5α; colony pUC118-FPB1-DH5α (feces insert 1 selected against polymyxin B) | E. coli JM109; colony pUC118-FSA1-JM109 (feces insert 1 selected against cathelicidin-DM) | E. coli BL21(DE3); colony pUC118-FCST1-BL21(DE3) (feces insert 1 selected against colistin) | E. coli BL21(DE3); colony pUC118-FCST2-BL21(DE3) (feces insert 2 selected against colistin) | E. coli BL21(DE3); colony pUC118-FGQ1-BL21(DE3) (feces insert 1 selected against melittin) | E. coli BL21(DE3); colony pUC118-FGQ2- BL21(DE3) (feces insert 2 selected against melittin) | E. coli BL21(DE3); colony pUC118-FIB2-BL21(DE3) (feces insert 2 selected against iseganan) | E. coli BL21(DE3); colony pUC118-FPB2-BL21(DE3) (feces insert 2 selected against polymyxin B) | E. coli BL21(DE3); colony pUC118-FSA1-BL21(DE3) (feces insert 1 selected against cathelicidin-DM) | E. coli BL21(DE3); colony pUC118-FSA2-BL21(DE3) (feces insert 2 selected against cathelicidin-DM) | E. coli BL21(DE3); colony pUC118-SCST1-BL21(DE3) (soil insert 1 selected against colistin) | E. coli BL21(DE3); colony pUC118-SCST2-BL21(DE3) (soil insert 2 selected against colistin) | E. coli BL21(DE3); colony pUC118-SPB2-BL21(DE3) (soil insert 2 selected against polymyxin B) | E. coli BL21(DE3); colony pUC118-SSA1-BL21(DE3) (soil insert 1 selected against cathelicidin-DM) | E. coli BL21(DE3); colony pUC118-SSA2-BL21(DE3) (soil insert 2 selected against cathelicidin-DM)
1 µg/mL: E. coli DH5α; colony pUC118-FIB2-DH5α (feces insert 2 selected against iseganan) | E. coli DH5α; colony pUC118-FPB2-DH5α (feces insert 2 selected against polymyxin B) | E. coli DH5α; colony pUC118-SCST2-DH5α (soil insert 2 selected against colistin) | E. coli DH5α; colony pUC118-SSA2-DH5α (soil insert 2 selected against cathelicidin-DM) | E. coli JM109; colony pUC118-FCST2-JM109 (feces insert 2 selected against colistin) | E. coli JM109; colony pUC118-FPB1-JM109 (feces insert 1 selected against polymyxin B) | E. coli BL21(DE3); colony pUC118-BL21(DE3) (control, no insert) | E. coli BL21(DE3); colony pUC118-FIB1-BL21(DE3) (feces insert 1 selected against iseganan) | E. coli BL21(DE3); colony pUC118-SGQ1-BL21(DE3) (soil insert 1 selected against melittin) | E. coli BL21(DE3); colony pUC118-SGQ2-BL21(DE3) (soil insert 2 selected against melittin) | E. coli BL21(DE3); colony pUC118-SIB1-BL21(DE3) (soil insert 1 selected against iseganan) | E. coli BL21(DE3); colony pUC118-SIB2-BL21(DE3) (soil insert 2 selected against iseganan) | E. coli BL21(DE3); colony pUC118-SPB1-BL21(DE3) (soil insert 1 selected against polymyxin B)
